The record followed here is US20220339176A1, “Methods of Treatments to Prolong Gestation and Complications of Menstruation or Gestation” (priority 2019, published 2022).

Series [1] concerns uterine muscle strips from pregnant WT mice. The series is described as follows: myography of uterine muscle strips, oxytocin dose-response. Also noted: species or system mouse. Conditions: D18 strips. The protocol:
(§1) Uterine muscle strips were extracted from pregnant mice and were assessed for contractibility via myography. Timed-pregnant wild-type C57/B6 mice were euthanized before making a vertical midline abdominal incision and removing each of the two uterine horns. Uterine horns were subsequently cut into 3-mm×7-mm segments and placed in a modified Krebs buffer (118 mM NaCl, […], 1.2 mM MgSO4, 1.2 mM KH2PO4, 2.5 mM CaCl2), 25 mM NaHCO3, and 11 mM glucose, pH 7.4). Muscle segments were vertically suspended on custom-made stainless steel hooks inside an organ bath filled with modified Krebs buffer, maintained at 37° C., and aerated with gas containing 95% O2 and 5% CO2. The strips were allowed to equilibrate at 1.5 g of tension for 45 min.
For the oxytocin dose-response experiments, the strips were then stimulated with oxytocin at concentrations ranging from 1 to 1000 nM, and the pattern of contraction in response to each dose was recorded for 9 min. The muscle strips were washed with Krebs solution twice and allowed to equilibrate for 3 min before the next stimulation. In separate experiments, strips were treated with the compounds before assessing the dose response to oxytocin. Contraction tracings were recorded using PowerLab and LabChart (ADInstruments).
Provided in FIGS. 5B and 5C are results of a myography experiment measuring spontaneous contractions induced by oxytocin. Myography of uterine muscle strips from pregnant WT mice at D18 was performed while incubating the strips with increasing doses of oxytocin in the presence of 1 μM Androstane-3,17-diol (black squares) or vehicle (black circles), n=4 to 7. The results are provided as old increase in area under the curve AUC (FIG. 5B), and amplitude (FIG. 5C) from baseline spontaneous contractions with vehicle and Androstane-3,17-diol. […]

For series [2] the test system is unchanged. The series is described as follows: myography of uterine muscle strips, spontaneous contraction. The arrangement: species or system mouse. The protocol:
as §1
Provided in FIG. 5A are results of a myography experiment measuring spontaneous contraction. Myography of uterine muscle strips from pregnant WT mice at D18 was performed while incubating the strips with oxytocin (OXY), Vehicle, 0.25 μM μM of DHEA-S, 1 μM of THDOC, 1 μM of estriol-16-glucuronide, or 1 μM of androstane-3,17-diol. The area under the curve was calculated for the final 180 s of each 9-min contraction tracing using GraphPad Prism (GraphPad Prism for Macintosh version 5.0; GraphPad Software). The area under the curve for each response was then normalized to the area under the curve of the baseline.
Provided in FIG. 5E are myography tracings recorded with various compound applications: 10 μM progesterone, 1 μM Androstane-3,17-diol, 0.5 μM Androstane-3,17-diol+5 μM progesterone, and 0.33 μM Androstane-3,17-diol+0.33 μM THDOC+3.3 μM progesterone. Left of the arrow is baseline contraction and to the right of the arrow indicates when the compounds were applied. […] Note that there was no obvious effect when treating the muscle with 1 μM progesterone (data not shown).

The test system of series [3] is Pregnant C57BL/6 mice. The series can be described thus: treatment of healthy control mice (no LPS administration). The class given is in vivo. To be noted: 1.5 mg/mouse intraperitoneal every 24 hours. The protocol: (§2) Provided in FIGS. 8A and 8B are an experimental schematic and results of tocolytic compound treatment in mouse models of severe preterm birth. In separate experiments, pregnant C57BL/6 mice were intraperitoneally administered 3 mg/kg LPS (Escherichia coli 0127:B8, chromatographically pure, Sigma-Aldrich) or PBS (as control) on D15. Treated mice were then treated with either intraperitoneal injections of vehicle or androstane-3,17-diol (1.5 mg/mouse). The androstane-3,17-diol group received […] via intraperitoneal injections every 24 hours, up to 3 days before delivery. One-third (33%) of LPS-induced preterm mice treated with androstane-3,17-diol reached full term.

The subject of series [4] is Pregnant C57BL/6 mice. The series is described as follows: mouse model of severe preterm birth (3 mg/kg LPS). Type of series: in vivo. Conditions: 3 mg/kg LPS on D15. The protocol: Provided in FIG. 7 is an experimental schematic of compound treatment in mouse models of severe preterm birth. In separate experiments, pregnant C57BL/6 mice were intraperitoneally administered 3 mg/kg LPS (Escherichia coli 0127:B8, chromatographically pure, Sigma-Aldrich) or PBS (as control) on D15. Treated mice were then treated with either intraperitoneal injections of vehicle (200 μl, 15% DMSO in pharmaceutical sesame oil) or androstane-3,17-diol (1.5 mg/mouse, 200 μl) every 12 hours, up to 5 doses before delivery.
as §2

In series [5] the test system is Pregnant C57BL/6 mice. The series is described as follows: mouse model of moderate preterm birth (2 mg/kg LPS). The class given is in vivo. Conditions: for gestation in vivo: 2 mg/kg LPS on D15, compounds intraperitoneal every 8 hours beginning 8 hours after LPS. On the procedure: Provided in FIGS. 6A and 6B are an experimental schematic and results of compound treatment in mouse models of moderate preterm birth. Pregnant C57BL/6 mice were intraperitoneally administered 2 mg/kg LPS (Escherichia coli 0127:B8, chromatographically pure, Sigma-Aldrich) or PBS (as control) on D15. Mice were then treated with either intraperitoneal injections of vehicle (100 μl, 30% DMSO in pharmaceutical sesame oil), DHEA-S(first two doses at 0.8 mg/mouse, later doses at 0.4 mg/mouse, 100 μl), THDOC (first two doses at 0.8 mg/mouse, later doses at 0.4 mg/mouse, 100 μl), estriol-16-glucuronide (first two doses at 0.8 mg/mouse, later doses at 0.4 mg/mouse, 100 μl), androstane-3,17-diol (1.5 mg/mouse, 100 μl), Androstane-3,17-diol+progesterone (each at 0.75 mg/mouse, 100 μl), or DHEA-S+androstane-3,17-diol+progesterone (androstane-3,17-diol and progesterone each at 0.75 mg/mouse, DHEA-S at 0.27 mg/mouse for the first two doses and then 0.13 mg/mouse for the later does, 100 μl). Compound groups received the compounds via intraperitoneal injections every 8 hours, beginning 8 hours after LPS administration, up to 4 doses, and then after 12 hours before delivery.

Series [6] concerns human uterine smooth muscle cells. The series can be described thus: collagen gel contraction assay. Type of series: cell-based.
Where [7] appears, read: 2 mg/kg LPS on D15, compounds intraperitoneal.

Entries after “also recorded” stand apart in the source; their conditions may differ. Where a name gives a salt, the structure may show the parent alone.

`CC[C@H](C)[C@@H]1NC(=O)[C@H](Cc2ccc(O)cc2)NC(=O)[C@@H](N)CSSC[C@@H](C(=O)N2CCC[C@H]2C(=O)N[C@@H](CC(C)C)C(=O)NCC(N)=O)NC(=O)[C@H](CC(N)=O)NC(=O)[C@H](CCC(N)=O)NC1=O` [Oxytocin, oxytocin, reference compound]: the “uterine contractility (AUC, amplitude)” value in series [1] (oxytocin 1 to 1000 nM, vehicle) was “induced a dose-dependent increase in uterine contractility”.

Regarding `C[C@]12CC[C@@H](O)C[C@@H]1CC[C@@H]1[C@@H]2CC[C@]2(C)[C@@H](O)CC[C@@H]12` (stereo in doubt) [androstane-3,17-diol], in series [2] (1 μM Androstane-3,17-diol), the “muscle contractility in myography tracings” value is “rapid inhibition of the muscle contraction”. The “suppression of uterine contractility (area under the curve normalized to baseline)” value in series [2] (D18 strips, 0.25 μM DHEA-S, 1 μM THDOC, 1 μM estriol-16-glucuronide, 1 μM androstane-3,17-diol) is “most significant inhibition effect”. Further, the gestation period entry in series [3] is given as “increased gestation period beyond the typical date of delivery”. In addition, in series [4] (1.5 mg/mouse intraperitoneal every 12 hours, up to 5 doses), the “mice that reached full-term” value is recorded as 1/3. Moreover, in series [4] (1.5 mg/mouse intraperitoneal every 12 hours, the mouse that reached full-term), the “appearance of mom and pups” value was “both mom and pups looked healthy”. Besides, the “LPS-induced preterm mice that reached full term” value in series [4] (1.5 mg/mouse intraperitoneal every 24 hours, up to 3 days) was found to be 33%. In series [1] (increasing doses of oxytocin, 1 μM Androstane-3,17-diol), the “effect on oxytocin-induced uterine contractility (AUC and amplitude from baseline)” value is “reduced; also recorded: inhibits uterine muscle contraction with oxytocin stimulation”. In addition, in series [5] (setting [7]), the “birth outcome of preterm model females” value is reported as “Full-term live pups were birthed” and the “comparison of gestation results between treatment groups” value is “most significant results”. For the same compound, the gestation in vivo entry in series [5] is recorded as “prolonged gestation in vivo”. Also, in series [6] (oxytocin 100 nM, 18 hours, 2.5 μM DHEA-S, 10 μM THDOC, 10 μM estriol-16-glucuronide, 10 μM androstane-3,17-diol, 2 mM progesterone), the “ability to mitigate collagen retraction (gel surface area relative to no cell control)” value is on record as “provided the best results”.

For the compound `C[C@]12CC[C@@H](O)C[C@H]1CC[C@@H]1[C@@H]2CC[C@]2(C)[C@@H](C(=O)CO)CC[C@@H]12` [THDOC, tetrahydrodeoxycorticosterone], the gestation in vivo result in series [5] was “prolonged gestation in vivo”.

On to `C[C@]12CC[C@H](OS(=O)(=O)O)CC1=CC[C@@H]1[C@@H]2CC[C@]2(C)C(=O)CC[C@@H]12` [DHEA-S, dehydroisoandrosterone sulfate], for which, in series [5] (setting [7]), the “birth outcome of preterm model females” value is given as “Full-term live pups were birthed”. For the same compound, the gestation in vivo entry in series [5] is reported as “prolonged gestation in vivo”.

Turning to `CC(=O)[C@H]1CC[C@H]2[C@@H]3CCC4=CC(=O)CC[C@]4(C)[C@H]3CC[C@]12C` [progesterone, reference compound], the “muscle contractility in myography tracings” value is “no effects” in series [2] (1 μM progesterone); “first enhanced and then gradually suppressed in peak height” in series [2] (10 μM progesterone). Besides, in series [1] (increasing doses of oxytocin, 10 μM progesterone, n=3), the “effect on uterine muscle contraction with oxytocin stimulation” value was “but progesterone inhibits uterine muscle contraction”. In series [6] (progesterone at the same concentration as androstane-3,17-diol (10 μM)), the “ability to mitigate collagen retraction” value was “no effect”.
